56 compounds from patent US8101550B2, “Anthranilic acid diamide derivative with hetero-aromatic and hetero-cyclic substituents” (Bayer Cropscience AG, priority 2006, dated 2012) can be followed below.

By logP is commonly meant the decadic logarithm of the partition coefficient of the neutral form, usually between octanol and water. Low values mean lower lipophilicity, high ones higher lipophilicity.

The nature of one series: log P determination by HPLC on reverse-phase column (EEC Directive 79/831 Annex V.A8). It is filed as physicochemical.
Conditions: not given
Put shortly:
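Log P was derived from retention times by linear interpolation between successive unbranched alkan-2-one standards (C3–C16). The standards and samples ran on a C18 reverse-phase column at 43 °C with a 10→95% acetonitrile gradient in 0.1% formic acid (pH 2.7). The method follows EEC Directive 79/831 Annex V.A8.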
Compound `Cc1cc(Cl)cc(C(=O)NCC#N)c1NC(=O)c1cc(Cn2cnc(C(F)(F)C(F)(F)F)n2)nn1-c1ncccc1Cl` [I-1-348] displayed a log partition coefficient (logP) of 2.21.
`Cc1cc(C#N)cc(C(=O)NCC#N)c1NC(=O)c1cc(Cn2nc(C(F)(F)F)cc2C(F)(F)F)nn1-c1ncccc1Cl` [I-1-190] yielded a logP of 3.28.
`CNC(=O)c1cc(I)cc(C)c1NC(=O)c1cc(Cn2nc(C(F)(F)F)nc2C(F)(F)F)nn1-c1ncccc1Cl` [I-1-237] yielded a logP of 3.60.
Consider `Cc1cc(I)cc(C(=O)NCC#N)c1NC(=O)c1cc(Cn2nc(C(F)(F)F)nc2C(F)(F)F)nn1-c1ncccc1Cl` [I-1-245], for which the logP was 3.53.
`Cc1cc(F)cc(C(=O)NC(C)C[S+](C)[O-])c1NC(=O)c1cc(Cn2cc(Cl)c(C(F)(F)C(F)(F)F)n2)nn1-c1ncccc1Cl` (centres unmarked) [I-1-216] gave a logP of 3.03.
As for `CNC(=O)c1cc(C#N)cc(C)c1NC(=O)c1cc(Cn2cnc(C(F)(F)C(F)(F)F)n2)nn1-c1ncccc1Cl` [I-1-352], the logP is on record as 1.91.
Still for that read-out and setting: in the case of `Cc1cc(Cl)cc(C(=O)NC(C)C)c1NC(=O)c1cc(Cn2cnc(-c3ccc(Cl)cc3)n2)nn1-c1ncccc1Cl` [I-1-154] it was 3.56.
On the same count and under the same terms, in the case of `CNC(=O)c1cc(Cl)cc(C)c1NC(=O)c1cc(C(=NOC)n2nc(C(F)(F)F)cc2C(F)(F)F)nn1-c1ncccc1Cl` [I-1-355] it was 4.07.
Regarding `CNC(=O)c1cc(Cl)cc(Cl)c1NC(=O)c1cc(Cn2cnc(C(F)(F)C(F)(F)F)n2)nn1-c1ncccc1Cl` [I-1-342], the logP came to 2.15.
`CNC(=O)c1cc(Cl)cc(C)c1NC(=O)c1cc(Cn2cnc(C(C)(C)C)n2)nn1-c1ncccc1Cl` [I-1-160] gave a logP of 2.39.
On to `CNC(=O)c1cc(Cl)cc(Cl)c1NC(=O)c1cc(Cc2cccnc2)nn1-c1ncccc1Cl` [I-1-316], for which the logP is reported as 1.03.
`O=C(NC1CC1)c1cc(Cl)cc(Cl)c1NC(=O)c1cc(Cn2nc(C(F)(F)F)cc2C(F)(F)F)nn1-c1ncccc1Cl` [I-1-300] had a logP of 3.19.
Same read-out and setting: in the case of `Cc1cc(I)cc(C(=O)NC(C)C2CC2)c1NC(=O)c1cc(Cn2nc(C(F)(F)F)nc2C(F)(F)F)nn1-c1ncccc1Cl` (centres unmarked) [I-1-284] it was 4.16.
Turning to `N#CCNC(=O)c1cc(Cl)cc(Cl)c1NC(=O)c1cc(Cn2cc(Cl)c(C(F)(F)C(F)(F)F)n2)nn1-c1ncccc1Cl` [I-1-310], the logP stood at 3.13.
Compound `N#CCNC(=O)c1cc(Cl)cc(Cl)c1NC(=O)c1cc(Cn2nc(C(F)(F)F)cc2C(F)(F)F)nn1-c1ncccc1Cl` [I-1-303] showed a logP of 2.98.
With `CC(C)NC(=O)c1cc(Cl)cc(Cl)c1NC(=O)c1cc(Cc2cccnc2)nn1-c1ncccc1Cl` [I-1-317], the log partition coefficient (logP) came out at 1.31.
Turning to `CNC(=O)c1cc(Cl)cc(Cl)c1NC(=O)c1cc(Cn2cnc(C(F)(F)C(F)(F)F)n2)nn1-c1ncccc1Cl` [I-1-326], the logP came out at 2.55.
Regarding `CSC[C@H](C)NC(=O)c1cc(Cl)cc(C)c1NC(=O)c1cc(Cn2nnc(-c3ccc(Cl)nc3)n2)nn1-c1ncccc1Cl` [I-1-158], the logP came out at 3.67.
Turning to `Cc1cc(C#N)cc(C(N)=O)c1NC(=O)c1cc(Cn2ccc(C(F)(F)F)n2)nn1-c1ncccc1Cl` [I-1-184], the lipophilicity (logP) stood at 2.42.
In turn, `Cc1cc(I)cc(C(=O)NC(C)C)c1NC(=O)c1cc(Cn2cc(C(F)(F)C(F)(F)F)c(C(F)(F)C(F)(F)F)n2)nn1-c1ncccc1Cl` [I-1-240] registered a lipophilicity (logP) of 4.96.
`Cc1cc(I)cc(C(=O)NCC#N)c1NC(=O)c1cc(Cn2nc(C(F)(F)F)cc2C(F)(F)F)nn1-c1ncccc1Cl` [I-1-241] had a logP of 3.73.
Turning to `CC(C)NC(=O)c1cc(Cl)cc(Cl)c1NC(=O)c1cc(Cc2cncnc2)nn1-c1ncccc1Cl` [I-1-318], the logP is 1.62.
On the same count and under the same terms, next, `Cc1cc(I)cc(C(=O)NC(C)C)c1NC(=O)c1cc(Cn2nc(C(F)(F)F)nc2C(F)(F)F)nn1-c1ncccc1Cl` [I-1-238]: 4.06.
`CNC(=O)c1cc(C#N)cc(C)c1NC(=O)c1cc(Cn2nc(C(F)(F)F)cc2C(F)(F)F)nn1-c1ncccc1Cl` [I-1-186]: the logP was 3.35.
Still for that read-out and setting: next, `Cc1cc(I)cc(C(N)=O)c1NC(=O)c1cc(Cn2ccc(C(F)(F)F)n2)nn1-c1ncccc1Cl` [I-1-273]: 2.84.
In turn, `Cc1cc(I)cc(C(=O)NC2CC2)c1NC(=O)c1cc(Cn2ccc(C(F)(F)F)n2)nn1-c1ncccc1Cl` [I-1-249] returned a logP of 3.27.
In turn, `Cc1cc(I)cc(C(=O)NC(C)C)c1NC(=O)c1cc(Cn2ccc(C(F)(F)F)n2)nn1-c1ncccc1Cl` [I-1-248] yielded a logP of 3.51.
On to `Cc1cc(Cl)cc(C(=O)NC(C)C)c1NC(=O)c1cc(Cn2nc(C(F)F)c([N+](=O)[O-])c2C(F)F)nn1-c1ncccc1Cl` [I-1-258], for which the logP amounted to 3.32.
The compound `Cc1cc(Cl)cc(C(=O)NC(CN2CCCCC2)C2CC2)c1NC(=O)c1cc(Cn2cc(Cl)c(C(F)(F)C(F)(F)F)n2)nn1-c1ncccc1Cl` (centres unmarked) [I-1-214] came in with a logP of 2.77.
Compound `CNC(=O)c1cc(I)cc(C)c1NC(=O)c1cc(Cn2cc(Cl)c(C(F)(F)C(F)(F)F)n2)nn1-c1ncccc1Cl` [I-1-243] gave a logP of 3.96.
Still for that read-out and setting: next, `Cc1cc(C#N)cc(C(=O)NC(C)C[S+](C)[O-])c1NC(=O)c1cc(Cn2cc(Cl)c(C(F)(F)C(F)(F)F)n2)nn1-c1ncccc1Cl` (centres unmarked) [I-1-211]: 3.02.

Staying with this series, now noted: HPLC on reverse-phase column.
Consider `Cc1cc(Cl)cc(C(=O)NCC#N)c1NC(=O)c1cc(Cn2nnn(-c3cc(C(F)(F)F)cc(C(F)(F)F)c3)c2=O)nn1-c1ncccc1Cl` [I-1-95], for which the logP is 4.01.
`Cc1cc(Cl)cc(C(=O)NC(C)C)c1NC(=O)c1cc(Cn2cc(C(F)(F)C(F)(F)F)cn2)nn1-c1ncccc1Cl` [I-1-65] gave a logP of 3.67.
The same measure, in the same setting: in the case of `Cc1cc(Cl)cc(C(=O)NC(C)C)c1NC(=O)c1cc(Cn2nnn(-c3ccc(C(F)(F)F)cc3)c2=O)nn1-c1ncccc1Cl` [I-1-89] it was 3.96; in that of `CSC[C@H](C)NC(=O)c1cc(Cl)cc(C)c1NC(=O)c1cc(Cn2cc(Br)c(C(F)(F)F)n2)nn1-c1ncccc1Cl` [I-1-130], 4.11.
In turn, `Cc1cc(Cl)cc(C(=O)NC(C)(C)CS(C)(=O)=O)c1NC(=O)c1cc(Cn2nc(C(F)(F)F)nc2C(F)(F)F)nn1-c1ncccc1Cl` [I-1-139] showed a logP of 3.50.
As to `CNC(=O)c1cc(Cl)cc(C)c1NC(=O)c1cc(Cn2nnc(-c3ccc(C(F)(F)F)cc3)n2)nn1-c1ncccc1Cl` [I-1-104], the logP was found to be 3.79.
Regarding `CNC(=O)c1cc(Cl)cc(C)c1NC(=O)c1cc(Cn2ccc(Cl)n2)nn1-c1ncccc1Cl` [I-1-102], the log partition coefficient (logP) is 2.51.
In turn, `Cc1cc(Cl)cc(C(=O)NC(C)C)c1NC(=O)c1cc(Cn2nnn(C)c2=O)nn1-c1ncccc1Cl` [I-1-115] displayed a logP of 2.31.
Compound `Cc1cc(Br)cc(C(=O)NC2CC2)c1NC(=O)c1cc(Cn2nc(C(F)(F)F)nc2C(F)(F)F)nn1-c1ncccc1Cl` [I-1-57] returned a logP of 3.67.
`Cc1cc(Cl)cc(C(=O)NC(C)C)c1NC(=O)c1cc(Cn2nnc(-c3ccc(Cl)nc3)n2)nn1-c1ncccc1Cl` [I-1-149] displayed a lipophilicity (logP) of 3.41.
`Cc1cc(Cl)cc(C(N)=O)c1NC(=O)c1cc(Cn2nnn(-c3cc(C(F)(F)F)cc(C(F)(F)F)c3)c2=O)nn1-c1ncccc1Cl` [I-1-94]: the logP is given as 3.85.
In the case of `Cc1cc(Cl)cc(C(=O)NC(C)C)c1NC(=O)c1cc(Cn2cc(I)c(I)n2)nn1-c1ncccc1Cl` [I-1-111], the logP is 3.58.
The same measure, in the same setting: in the case of `Cc1cc(Br)cc(C(=O)NC(C)CS(C)(=O)=O)c1NC(=O)c1cc(Cn2cc(Br)c(C(F)(F)F)n2)nn1-c1ncccc1Cl` (centres unmarked) [I-1-101] it was 3.32; in that of `Cc1cc(Cl)cc(C(=O)NC2CC2)c1NC(=O)c1cc(Cn2cc(C(F)(F)C(F)(F)F)c(C(F)(F)C(F)(F)F)n2)nn1-c1ncccc1Cl` [I-1-46], 4.58; in that of `Cc1cc(Br)cc(C(=O)N[C@@H](C)C[S+](C)[O-])c1NC(=O)c1cc(Cn2nc(C(F)(F)F)nc2C(F)(F)F)nn1-c1ncccc1Cl` (some centres unmarked) [I-1-140], 3.05.
As for `Cc1cc(Cl)cc(C(=O)NCC#N)c1NC(=O)c1cc(Cn2nc(C(F)(F)F)nc2C(F)(F)F)nn1-c1ncccc1Cl` [I-1-79], the logP amounted to 3.62.
`Cc1cc(Br)cc(C(=O)NC2CC2)c1NC(=O)c1cc(Cn2nc(C(F)(F)F)cc2C(F)(F)F)nn1-c1ncccc1Cl` [I-1-60]: the logP worked out at 3.91.
Compound `Cc1cc(Br)cc(C(=O)NC(C)(C)CS(C)(=O)=O)c1NC(=O)c1cc(Cn2cc(Br)c(C(F)(F)F)n2)nn1-c1ncccc1Cl` [I-1-121] came in with a lipophilicity (logP) of 3.57.
On the same count and under the same terms, next, `Cc1cccc(C(=O)N[C@@H](C)CS(C)(=O)=O)c1NC(=O)c1cc(Cn2nc(C(F)(F)F)nc2C(F)(F)F)nn1-c1ncccc1Cl` [I-1-87]: 2.92.

Still in this series, the particulars now being: HPLC, reverse-phase column (C 18), 43° C., acidic range pH 2.7.
The compound `CNC(=O)c1cc(Cl)cc(Cl)c1NC(=O)c1cc(Cn2nc(C(F)(F)F)nc2C(F)(F)F)nn1C(C)C` [I-2-3] registered a logP of 3.31.
In turn, `O=C(NC1CC1)c1cc(Cl)cc(Cl)c1NC(=O)c1cc(Cn2nc(C(F)(F)F)cc2C(F)(F)F)nn1-c1ncc(C(F)(F)F)cc1Cl` [I-2-13] returned a logP of 4.46.
Compound `Cc1cc(I)cc(C(=O)NC(C)C)c1NC(=O)c1cc(Cn2nc(C(F)(F)F)cc2C(F)(F)F)nn1-c1ncc(C(F)(F)F)cc1Cl` [I-2-9] yielded a log partition coefficient (logP) of 4.98.
`Cc1cc(Cl)cc(C(=O)NC2CC2)c1NC(=O)c1cc(Cn2nc(C(F)(F)F)cc2C(F)(F)F)nn1-c1ncc(C(F)(F)F)cc1Cl` [I-2-12] registered a logP of 4.52.

The same series, now with this note: reverse-phase C18 HPLC column; HPLC, reverse-phase column (C 18), 43° C., acidic range pH 2.7; read-out: logP.
On to `COC(=O)c1cc(C(=O)OC)n(-c2ncccc2Cl)n1` [Example 7, Dimethyl 1-(3-chloropyridin-2-yl)-1H-pyrazole-3,5-dicarboxylate], for which the chromatographic logP turned out to be 1.97.
For `COC(=O)c1cc(COS(C)(=O)=O)nn1-c1ncccc1Cl` [Example 5, Methyl 2-(3-chloropyridin-2-yl)-5-methanesulphonyloxymethyl-2H-pyrazole-3-carboxylate], the chromatographic logP is 1.55.
